In patent US7354936B2, “2-phenylpyran-4-one derivatives” (Almirall AG, priority 2000, dated 2008):

What was measured:
COX-1 = molecular target: T1, COX-1 (Homo sapiens, UniProt P23219); assay: COX-1 activity in human whole blood (TXB2, calcium ionophore A23187); assay type: cell-based; conditions: for IC50: 1 h at 37° C., TXB2 by ELISA; for inhibition at 100 µM: read-out: COX-1 inhibition at 100 μM, at 100 μM
T1 construct: Fresh blood from healthy volunteers; from tissue; host or cells: human whole blood (heparinized) from healthy volunteers
T1 sequence (P23219 24-599): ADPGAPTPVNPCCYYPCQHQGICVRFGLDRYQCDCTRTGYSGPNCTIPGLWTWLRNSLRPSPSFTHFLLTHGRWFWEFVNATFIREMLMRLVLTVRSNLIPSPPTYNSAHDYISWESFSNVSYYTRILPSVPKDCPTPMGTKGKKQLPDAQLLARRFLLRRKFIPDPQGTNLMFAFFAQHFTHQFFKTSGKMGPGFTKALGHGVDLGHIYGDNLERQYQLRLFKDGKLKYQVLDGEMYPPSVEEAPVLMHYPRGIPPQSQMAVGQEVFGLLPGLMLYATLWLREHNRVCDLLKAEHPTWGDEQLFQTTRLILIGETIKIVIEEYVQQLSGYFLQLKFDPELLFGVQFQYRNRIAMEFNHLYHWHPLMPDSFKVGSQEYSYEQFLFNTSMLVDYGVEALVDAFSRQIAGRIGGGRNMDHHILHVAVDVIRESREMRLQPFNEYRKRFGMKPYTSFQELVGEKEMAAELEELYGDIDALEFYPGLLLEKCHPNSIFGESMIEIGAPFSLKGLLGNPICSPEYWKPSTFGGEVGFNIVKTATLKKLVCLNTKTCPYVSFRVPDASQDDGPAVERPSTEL

COX-2 = molecular target: T2, COX-2 (Homo sapiens, UniProt P35354); assay: COX-2 activity in human whole blood (PGE2, LPS-induced); assay type: cell-based; conditions: for IC50: LPS 24 h at 37° C., PGE2 by ELISA; for Ratio COX-1/COX-2: ratio of COX-1/COX-2 IC50 values
T2 construct: incubated in the presence of LPS (10:g/ml) for 24 h at 37° C. in order to induce the COX-2 expression; from tissue; host or cells: human whole blood (heparinized) from healthy volunteers, LPS-stimulated for 24 h
T2 sequence (P35354 18-604): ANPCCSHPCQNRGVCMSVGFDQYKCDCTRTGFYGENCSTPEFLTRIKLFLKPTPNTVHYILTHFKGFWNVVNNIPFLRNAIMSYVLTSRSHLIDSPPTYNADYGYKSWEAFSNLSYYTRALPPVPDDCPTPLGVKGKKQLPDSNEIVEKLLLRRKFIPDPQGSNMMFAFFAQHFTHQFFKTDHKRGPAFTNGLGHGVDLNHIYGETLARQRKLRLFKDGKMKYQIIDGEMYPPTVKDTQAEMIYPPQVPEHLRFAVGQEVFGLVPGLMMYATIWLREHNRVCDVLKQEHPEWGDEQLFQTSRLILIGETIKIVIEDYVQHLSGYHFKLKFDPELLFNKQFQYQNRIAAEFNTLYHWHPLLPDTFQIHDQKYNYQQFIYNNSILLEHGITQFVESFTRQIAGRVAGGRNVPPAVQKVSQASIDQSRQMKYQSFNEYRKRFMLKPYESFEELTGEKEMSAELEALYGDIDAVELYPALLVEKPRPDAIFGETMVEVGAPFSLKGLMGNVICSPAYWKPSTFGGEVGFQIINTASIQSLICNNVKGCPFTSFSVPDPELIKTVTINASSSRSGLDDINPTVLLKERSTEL

Row | IC50 (COX-1) | IC50 (COX-2) | Ratio COX-1/COX-2 (COX-2) | melting point | inhibition at 100 µM (COX-1) | SMILES
1 | 35600 nM | 580 nM | 62 | 173 °C | – | CCc1c(C)oc(-c2ccc(S(C)(=O)=O)cc2)c(Oc2ccc(F)cc2F)c1=O [Example 21, 3-(2,4-Difluorophenoxy)-5-ethyl-2-(4-methanesulfonylphenyl)-6-methyl pyran-4-one]
2 | – | 600 nM | >150 | 227 °C | 13% | CS(=O)(=O)c1ccc(-c2oc(CO)cc(=O)c2Oc2ccc(Cl)cc2)cc1 [Example 24, 3-(4-Chlorophenoxy)-6-hydroxymethyl-2-(4-methanesulfonylphenyl)pyran-4-one]
3 | 19900 nM | 86 nM | 231 | 168 °C | – | Cc1cc(=O)c(Oc2ccccc2C)c(-c2ccc(S(C)(=O)=O)cc2)o1 [Example 10, 2-(4-Methanesulfonylphenyl)-6-methyl-3-(2-methylphenoxy)pyran-4-one]

The remaining lines, values behind:

Row | SMILES | IC50 (COX-1) | IC50 (COX-2) | Ratio COX-1/COX-2 (COX-2) | melting point | inhibition at 100 µM (COX-1)
4 | COCc1cc(=O)c(Oc2ccc(Cl)cc2)c(-c2ccc(S(C)(=O)=O)cc2)o1 [Example 28, 3-(4-Chlorophenoxy)-2-(4-methanesulfonylphenyl)-6-methoxymethylpyran-4-one] | 91900 nM | 440 nM | 209 | 156 °C | –
5 | Cc1oc(-c2ccc(S(C)(=O)=O)cc2)c(Oc2ccc(F)cc2F)c(=O)c1C [Example 19, 3-(2,4-Difluorophenoxy)-5,6-dimethyl-2-(4-methanesulfonylphenyl)pyran-4-one] | 14600 nM | 82 nM | 178 | 192 °C | –
6 | C=Cc1c(C)oc(-c2ccc(S(C)(=O)=O)cc2)c(Oc2ccc(F)cc2F)c1=O [Example 20, 3-(2,4-Difluorophenoxy)-2-(4-methanesulfonylphenyl)-6-methyl-5-vinyl pyran-4-one] | 31200 nM | 1430 nM | 22 | 184 °C | –
7 | CS(=O)(=O)c1ccc(-c2oc(CO)cc(=O)c2Oc2ccc(F)cc2)cc1 [Example 23, 3-(4-Fluorophenoxy)-6-hydroxymethyl-2-(4-methanesulfonylphenyl)pyran-4-one] | – | 1440 nM | >70 | 206 °C | 2%
8 | CS(=O)(=O)c1ccc(-c2oc(CO)cc(=O)c2Oc2ccc(F)cc2F)cc1 [Example 22, 3-(2,4-Difluorophenoxy)-6-hydroxymethyl-2-(4-methanesulfonylphenyl) pyran-4-one] | 53000 nM | 190 nM | 279 | 205 °C | –
